From patent US20250313558A1, “IMIDAZOLIDINE DERIVATIVE OR PHARMACEUTICALLY ACCEPTABLE SALT THEREOF, AND USE THEREOF” (CELLUS INC., priority 2023, published 2025)

Key:
Format in all cases: biochemical
ADAM10 = biological target: T1, ADAM10 (Homo sapiens, UniProt O14672); test: FRET assay, inhibition of ADAM10
T1 sequence (O14672 214-748): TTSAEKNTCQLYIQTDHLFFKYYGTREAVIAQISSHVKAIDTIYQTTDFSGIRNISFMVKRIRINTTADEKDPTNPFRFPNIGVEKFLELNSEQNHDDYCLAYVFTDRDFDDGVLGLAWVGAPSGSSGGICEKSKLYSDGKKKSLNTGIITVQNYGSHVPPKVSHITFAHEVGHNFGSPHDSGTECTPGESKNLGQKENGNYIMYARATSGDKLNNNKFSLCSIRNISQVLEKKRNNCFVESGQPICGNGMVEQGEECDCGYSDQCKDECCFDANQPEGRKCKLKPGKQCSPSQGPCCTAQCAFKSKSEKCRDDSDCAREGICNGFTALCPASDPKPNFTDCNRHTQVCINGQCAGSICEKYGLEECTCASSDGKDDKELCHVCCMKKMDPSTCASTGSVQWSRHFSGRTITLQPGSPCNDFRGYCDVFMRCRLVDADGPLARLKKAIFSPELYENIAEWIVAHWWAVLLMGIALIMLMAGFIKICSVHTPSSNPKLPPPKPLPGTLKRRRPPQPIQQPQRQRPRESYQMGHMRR
Excerpt: (§1) FRET assay is a method to detect and quantify the fluorescent signal generated when ADAM/ADAMTS proteins […] specific peptides.

ADAMTS5 = biological target: T2, ADAMTS5 (Homo sapiens, UniProt Q9UNA0); test: FRET assay, inhibition of ADAMTS5
T2 sequence (Q9UNA0 262-930): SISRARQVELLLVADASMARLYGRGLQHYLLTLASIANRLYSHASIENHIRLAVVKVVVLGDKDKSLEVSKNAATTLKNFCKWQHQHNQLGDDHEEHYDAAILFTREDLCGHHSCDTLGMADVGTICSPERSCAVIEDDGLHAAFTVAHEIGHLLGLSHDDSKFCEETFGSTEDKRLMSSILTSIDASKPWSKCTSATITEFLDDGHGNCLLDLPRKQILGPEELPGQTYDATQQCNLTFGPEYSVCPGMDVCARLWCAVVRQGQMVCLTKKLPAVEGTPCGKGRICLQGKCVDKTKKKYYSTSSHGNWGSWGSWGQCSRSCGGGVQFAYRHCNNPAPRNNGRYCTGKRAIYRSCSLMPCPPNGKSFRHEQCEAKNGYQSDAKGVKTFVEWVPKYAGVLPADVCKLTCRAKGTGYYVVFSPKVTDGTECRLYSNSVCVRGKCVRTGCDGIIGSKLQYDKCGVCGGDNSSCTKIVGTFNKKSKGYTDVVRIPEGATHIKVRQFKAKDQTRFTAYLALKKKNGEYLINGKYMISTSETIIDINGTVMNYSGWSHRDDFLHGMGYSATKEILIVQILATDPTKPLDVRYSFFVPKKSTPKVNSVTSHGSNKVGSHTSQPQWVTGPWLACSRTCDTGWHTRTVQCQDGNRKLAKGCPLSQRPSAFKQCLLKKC
Protocol: The control compound GLPG-1972 and four effective compounds (CLS-S210 (Formula 2), CLS-S282 (Formula 3), CLS-S213 (Formula 4), and CLS-S214 (Formula 5)) were treated with ADAMTS5, ADAMTS4, ADAM10, and ADAM17 proteins to perform Fluorescence Resonance Energy Transfer (FRET) evaluation. FRET assay is a method to detect and quantify the fluorescent signal generated when ADAM/ADAMTS proteins […] specific peptides.

ADAM17 = ADAM17 (Homo sapiens, UniProt P78536); test: FRET assay, inhibition of ADAM17
Chain of ADAM17 (P78536 215-824, species assumed): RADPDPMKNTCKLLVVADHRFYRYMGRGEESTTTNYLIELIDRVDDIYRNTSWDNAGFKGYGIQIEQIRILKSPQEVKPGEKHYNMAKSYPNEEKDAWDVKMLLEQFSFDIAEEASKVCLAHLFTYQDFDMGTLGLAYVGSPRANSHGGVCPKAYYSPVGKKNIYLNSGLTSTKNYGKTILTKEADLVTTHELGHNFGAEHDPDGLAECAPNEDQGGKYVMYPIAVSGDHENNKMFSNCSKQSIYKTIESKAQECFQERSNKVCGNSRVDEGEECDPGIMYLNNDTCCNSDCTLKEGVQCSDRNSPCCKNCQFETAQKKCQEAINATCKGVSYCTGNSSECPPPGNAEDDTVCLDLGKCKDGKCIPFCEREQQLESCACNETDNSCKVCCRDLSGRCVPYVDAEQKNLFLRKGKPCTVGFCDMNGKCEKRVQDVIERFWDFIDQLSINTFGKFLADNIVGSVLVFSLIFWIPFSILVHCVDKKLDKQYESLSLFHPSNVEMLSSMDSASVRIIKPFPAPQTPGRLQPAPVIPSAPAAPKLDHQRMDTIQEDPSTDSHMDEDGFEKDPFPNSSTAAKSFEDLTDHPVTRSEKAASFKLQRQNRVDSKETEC
Excerpt: as §1

CNC(=O)[C@@H](NC(=O)[C@H](CCCc1ccccc1)[C@H](C)N(O)C=O)C(C)(C)C [GI254023X]
inhibition ability against ADAM10 (in words) (ADAM10): inhibit ADAM10 and ADAM17 at low concentrations

C[C@H]1CN(C(=O)CC[C@@]2(C3CC3)NC(=O)NC2=O)CCN1c1cc(F)cc(F)c1 [GLPG-1972]
IC50 (ADAMTS5): 65 nM

CC(C)C[C@H](CC(=O)NO)C(=O)N[C@@H](Cc1ccc2ccccc2c1)C(=O)N[C@@H](C)C(N)=O [TAPI-0]
inhibition ability against ADAM17 (in words) (ADAM17): inhibit ADAM10 and ADAM17 at low concentrations
